Source: patent publication US6075018A, “1-[2-(substituted vinyl)]-3,4-dihydro-4-dihydro-5H-2,3-benzodiazepine derivatives” (priority 1995, dated 2000)

What was measured:
mice = test: Acute toxicity (dead/treated animals); format: in vivo
Experimental: The SMA inhibiting effect and the acute toxicity data (dead/treated animals, shown in brackets) of the new compounds are provided in Table II.
The experiments were performed according to the method of S.Irwin [Psychopharm. 13, 222 (1968)].

[1] = system: hippocampal CA1 field potentials (glutamate acting mainly through AMPA receptors); test: Inhibition of CA1 field potentials in hippocampal slices (glutamatergic transmission), method of Tarnawa et al.; design: species or system rat; settings: for Inhibition (%) 30 minutes after drug administration / Inhibition (%) 60 minutes after drug administration / Inhibition (%) after 30 minutes wash-out / efficacy compared to GYKI-52466: 50 μM; for Inhibition (%) after 30 minutes wash-out: *p < 0.05 compared to the 60 minutes value; for duration of action compared to known molecules / GYKI-52466 / efficacy compared to GYKI-52466: hippocampal slices; for effect of 30 minutes wash-out on the inhibition: wash-out lasting 30 minutes vs preceding 60 minutes incubation
Experimental: The effects of the compounds on the glutamatergic transmission were studied in hippocampal slices applying the method of Tarnawa et al. (Acta Physiol. Hung., 79, 163, 1992). 400 μm thick slices were prepared from rat brain and maintained in a chamber of interface type under simulated […] conditions. The Schaffer collaterals were stimulated and field potentials were recorded from the pyramidal cells of the hippocampal CA1 region. The neurotransmitter involved in this process is glutamate acting mainly through AMPA receptors.

[2] = system: stereotypy induced by amphetamine; test: Potentiation of the stereotypy induced by amphetamine, scale of Constall and Naylor; format: in vivo; settings: ip; 10 mg/kg i.p. + amphetamine 3 mg/kg s.c.
Experimental: The potentiation of the stereotypy evoked by amphetamine was evaluated according to the scale of Constall and Naylor (Eur. J. Pharmacol. 18, 95, 1972).
*10 mg/kg i.p. + amphetamine 3 mg/kg s.c.

[3] = system: convulsions evoked by pentetrazole; test: Inhibition of pentetrazole-evoked convulsions, method of Goodmann et al.; format: in vivo; settings: Mus musculus, ip; mice, 30 mg/kg i.p.; 50 mg/kg i.v. pentetrazole
Experimental: The compounds of general formula (I) exert a moderate anticonvulsive effect, too. This latter was measured in mice applying the method of Goodmann et al.[J. Pharmacol. Exp. Ther. 106, 319, (1952)]. The convulsions evoked by 50 mg/kg i.v. of pentetrazole were inhibited by 30-40% and 50-55% after the i.p. administration of 30 mg/kg of the compounds of Examples 10., 11., 13., 19., 28., 35, 40., and Examples 34 and 38, respectively.

[4] = background statement; cited from earlier work
[5] = system: hippocampal CA1 field potentials (glutamate acting mainly through AMPA receptors); settings: known AMPA antagonist; cited from earlier work

COc1cccc(/C=C/C2=NN(C(C)=O)C(C)Cc3cc4c(cc32)OCO4)c1OC (stereo not drawn) [Example 23, 1-(2,3-Dimethoxystyryl)-3-acetyl-4-methyl-7,8-methylenedioxy-3,4-dihydro-5H-2,3-benzodiazepine]
acute toxicity (dead/treated animals) (mice; i.p. 300 mg/kg): 0/5
acute toxicity (dead/treated animals) (mice; p.o. 1000 mg/kg): 0/5

COc1cc2c(cc1OC)C(/C=C/c1ccc(NC(C)=O)cc1)=NN(C(C)=O)C(C)C2 (stereo not drawn) [Example 39, 1-(4-Acetylaminostyryl)-3-acetyl-4-methyl-7,8-dimethoxy-3,4-dihydro-5H-2,3-benzodiazepine]
Inhibition (%) 30 minutes after drug administration [1]: 85.3 ± 15.09%
Inhibition (%) 60 minutes after drug administration [1]: 100 ± 0%
Inhibition (%) after 30 minutes wash-out [1]: 97.5 ± 0.98%
duration of action compared to known molecules / GYKI-52466 [1]: surpass that of GYKI-52466
efficacy compared to GYKI-52466 [1]: at least equal efficacy to the molecule GYKI-52466
effect of 30 minutes wash-out on the inhibition [1]: not able to diminish the effect
change in vivo at 10 mg/kg [2]: 113%

CCOc1cc2c(cc1OCC)C(/C=C/c1ccc(N(C)C)cc1)=NNC(C)C2 (stereo not drawn) [Example 10]
change in vivo at 10 mg/kg [2]: 176%
inhibition in vivo at 30 mg/kg [3]: 30 to 40%

CCC1c2cc(OC)c(OC)cc2C(/C=C/c2ccc([N+](=O)[O-])cc2)=NNC1C (stereo not drawn) [Example 26, 1-(4-Nitrostyryl)-4-methyl-5-ethyl-7,8-dimethoxy-3,4-dihydro-5H-2,3-benzodiazepine]
acute toxicity (dead/treated animals) (mice; i.p. 300 mg/kg): 0/5
acute toxicity (dead/treated animals) (mice; p.o. 1000 mg/kg): 0/5

CC1=NN=C(c2ccc(N)cc2)c2cc3c(cc2C1)OCO3 [GYKI-52466, 1-(4-aminophenyl)-4-methyl-7,8-methylenedioxy-5H-2,3-benzodiazepine, reference compound]
duration of action (in words) [4]: rather short
known pharmacological activity (in words) [4]: non-NMDA-glutamic acid antagonist having spasmolytic and antiischemic activities
Inhibition (%) 30 minutes after drug administration [1]: 94.5 ± 2.07%
Inhibition (%) 60 minutes after drug administration [1]: 100 ± 0%
Inhibition (%) after 30 minutes wash-out [1]: 84.6 ± 7.37%
effect of 30 minutes wash-out on the inhibition [1]: significantly smaller than that observed after the preceding incubation period
inhibition of the CA1 field potentials (in words) [5]: concentration-dependently inhibits the CA1 field potentials

COc1cc2c(cc1OC)C(/C=C/c1cccc(OC)c1OC)=NN(C(C)=O)C(C)C2 (stereo not drawn) [Example 22, 1-(2,3-Dimethoxystyryl)-3-acetyl-4-methyl-7,8-dimethoxy-3,4-dihydro-5H-2,3-benzodiazepine]
Inhibition (%) 30 minutes after drug administration [1]: 4.7 ± 0.84%
Inhibition (%) 60 minutes after drug administration [1]: 37.0 ± 9.19%
Inhibition (%) after 30 minutes wash-out [1]: 74.3 ± 11.53%
acute toxicity (dead/treated animals) (mice; i.p. 300 mg/kg): 1/5

COc1cc2c(cc1OC)C(/C=C/c1ccc(N(C)C)cc1)=NNC(C)C2 (stereo not drawn) [Example 7]
change in vivo at 10 mg/kg [2]: 90.2%

CC1Cc2cc3c(cc2C(/C=C/c2ccc(N(C)C)cc2)=NN1)OCO3 (stereo not drawn) [Example 9]
change in vivo at 10 mg/kg [2]: 141%

COc1cc2c(cc1OC)C(/C=C/c1ccccc1Br)=NNC(C)C2 (stereo not drawn) [Example 14]
change in vivo at 10 mg/kg [2]: 113%

COc1ccc(/C=C/C2=NNC(C)Cc3cc4c(cc32)OCO4)cc1C(C)C (stereo not drawn) [Example 13]
inhibition in vivo at 30 mg/kg [3]: 30 to 40%

COc1cc2c(cc1OC)C(/C=C/c1ccc(Cl)c(Cl)c1)=NNC(C)C2 (stereo not drawn) [Example 28, 1-(3,4-Dichlorostyryl)-4-methyl-7,8-dimethoxy-3,4-dihydro-5H-2,3-benzodiazepine]
change in vivo at 10 mg/kg [2]: 92.5%
inhibition in vivo at 30 mg/kg [3]: 30 to 40%

COc1ccc(/C=C/C2=NN(C(C)=O)C(C)Cc3cc4c(cc32)OCO4)c(OC)c1 (stereo not drawn) [Example 19, 1-(2,4-Dimethoxystyryl)-3-acetyl-4-methyl-7,8-methylenedioxy-3,4-dihydro-5H-2,3-benzodiazepine]
inhibition in vivo at 30 mg/kg [3]: 30 to 40%

CC1Cc2cc3c(cc2C(/C=C/c2ccc4c(c2)OCO4)=NN1)OCO3 (stereo not drawn) [Example 8]
change in vivo at 10 mg/kg [2]: 113%

CC1Cc2cc3c(cc2C(/C=C/c2ccccc2)=NN1)OCO3 (stereo not drawn) [Example 27, 1-Styryl-4-methyl-7,8-methylenedioxy-3,4-dihydro-5H-2,3-benzodiazepine]
acute toxicity (dead/treated animals) (mice; i.p. 300 mg/kg): 0/5
change in vivo at 10 mg/kg [2]: 183%

CCC1c2cc(OC)c(OC)cc2C(/C=C/c2ccc(N)cc2)=NNC1C (stereo not drawn) [Example 35, 1-(4-Aminostyryl)-4-methyl-5-ethyl-7,8-dimethoxy-3,4-dihydro-5H-2,3-benzodiazepine]
inhibition in vivo at 30 mg/kg [3]: 30 to 40%

COc1cc2c(cc1OC)C(/C=C/c1ccc3c(c1)OCO3)=NNC(C)C2 (stereo not drawn) [Example 3]
acute toxicity (dead/treated animals) (mice; i.p. 300 mg/kg): 0/5
acute toxicity (dead/treated animals) (mice; p.o. 1000 mg/kg): 0/5

COc1ccc(/C=C/C2=NN(C(C)=O)C(C)Cc3cc(OC)c(OC)cc32)c(OC)c1 (stereo not drawn) [Example 21, 1-(2,4-Dimethoxystyryl)-3-acetyl-4-methyl-7,8-dimethoxy-3,4-dihydro-5H-2,3-benzodiazepine]
Inhibition (%) 30 minutes after drug administration [1]: 16.1 ± 13.4%
Inhibition (%) 60 minutes after drug administration [1]: 33.7 ± 7.60%
Inhibition (%) after 30 minutes wash-out [1]: 61.1 ± 4.56%

COc1cc2c(cc1OC)C(/C=C/c1ccccc1)=NN(C(C)=O)C(C)C2 (stereo not drawn) [Example 20, 1-Styryl-3-acetyl-4-methyl-7,8-dimethoxy-3,4-dihydro-5H-2,3-benzodiazepine]
acute toxicity (dead/treated animals) (mice; i.p. 300 mg/kg): 1/5

CC1Cc2cc3c(cc2C(/C=C/c2ccc(N)cc2)=NN1)OCO3 (stereo not drawn) [Example 34, 1-(4-Aminostyryl)-4-methyl-7,8-methylenedioxy-3,4-dihydro-5H-2,3-benzodiazepine]
change in vivo at 10 mg/kg [2]: 92%
inhibition in vivo at 30 mg/kg [3]: 50 to 55%

COc1ccc(/C=C/C2=NNC(C)Cc3cc4c(cc32)OCO4)cc1OC (stereo not drawn) [Example 1, 1-(3,4-Dimethoxystyryl)-4-methyl-7,8-methylenedioxy-3,4-dihydro-5H-2,3-benzodiazepine]
acute toxicity (dead/treated animals) (mice; i.p. 300 mg/kg): 0/5
acute toxicity (dead/treated animals) (mice; p.o. 1000 mg/kg): 0/5

CC(=O)Nc1ccc(/C=C/C2=NN(C(C)=O)C(C)Cc3cc4c(cc32)OCO4)cc1 (stereo not drawn) [Example 40, 1-(4-Acetylaminostyryl)-3-acetyl-4-methyl-7,8-methylenedioxy-3,4-dihydro-5H-2,3-benzodiazepine]
Inhibition (%) 30 minutes after drug administration [1]: 14.8 ± 7.10%
Inhibition (%) 60 minutes after drug administration [1]: 25.8 ± 3.04%
Inhibition (%) after 30 minutes wash-out [1]: 35.4 ± 2.67%
change in vivo at 10 mg/kg [2]: 99.7%
inhibition in vivo at 30 mg/kg [3]: 30 to 40%

COc1cc2c(cc1OC)C(/C=C/c1cccc(O)c1)=NNC(C)C2 (stereo not drawn) [Example 11]
inhibition in vivo at 30 mg/kg [3]: 30 to 40%

CCC1c2cc(OC)c(OC)cc2C(/C=C/c2ccc(N)cc2)=NN(C(C)=O)C1C (stereo not drawn) [Example 38, 1-(4-Aminostyryl)-3-acetyl-4-methyl-5-ethyl-7,8-dimethoxy-3,4-dihydro-5H-2,3-benzodiazepine]
inhibition in vivo at 30 mg/kg [3]: 50 to 55%

COc1cc2c(cc1OC)C(/C=C/c1ccc([N+](=O)[O-])cc1)=NN(C(C)=O)C(C)C2 (stereo not drawn) [Example 30, 1-(4-Nitrostyryl)-3-acetyl-4-methyl-7,8-dimethoxy-3,4-dihydro-5H-2,3-benzodiazepine]
change in vivo at 10 mg/kg [2]: 100%

COc1cc2c(cc1OC)C(c1cccc(Cl)c1)=NN=C(C)C2 [Girisopam, 1-(3-chlorophenyl)-4-methyl-7,8-dimethoxy-5H-2,3-benzodiazepine, reference compound]
acute toxicity (dead/treated animals) (mice; i.p. 300 mg/kg): 0/6

CCC1c2cc3c(cc2C(/C=C/c2ccc(NC(C)=O)cc2)=NN(C(C)=O)C1C)OCO3 (stereo not drawn) [Example 41, 1-(4-Acetylaminostyryl)-3-acetyl-4-methyl-5-ethyl-7,8-methylenedioxy-3,4-dihydro-5H-2,3-benzodiazepine]
Inhibition (%) 30 minutes after drug administration [1]: 79.5 ± 10.10%
Inhibition (%) 60 minutes after drug administration [1]: 100 ± 0%
Inhibition (%) after 30 minutes wash-out [1]: 98.6 ± 2.67%
duration of action compared to known molecules / GYKI-52466 [1]: surpass that of GYKI-52466
efficacy compared to GYKI-52466 [1]: at least equal efficacy to the molecule GYKI-52466
effect of 30 minutes wash-out on the inhibition [1]: not able to diminish the effect
acute toxicity (dead/treated animals) (mice; i.p. 300 mg/kg): 0/5
acute toxicity (dead/treated animals) (mice; p.o. 1000 mg/kg): 0/5

COc1cc2c(cc1OC)C(/C=C/c1ccc(N)cc1)=NNC(C)C2 (stereo not drawn) [Example 33, 1-(4-Aminostyryl)-4-methyl-7,8-dimethoxy-3,4-dihydro-5H-2,3-benzodiazepine]
change in vivo at 10 mg/kg [2]: 202%
